Test results taken from the supplement of paper PMC11061612.

Legend:
Assay in all cases: Bliss excess, mean over the matrix (fraction); higher = more synergy
[1] = system: UMC-11 (Other Solid Carcinomas)
Procedure, shortened: (§1)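 After 24 hours at 37°C and 5% CO2 in 1536-well plates, cells in DMEM/F12 or RPMI plus 10% FBS received two-drug dose matrices for 72 hours. Viability came from CellTiter-Glo 2.0 luminescence and was scaled as inhibition, anchored at 0 by vehicle wells and at 1 by blank wells. Combination Emax is taken as the second-highest inhibition in the matrix, and Bliss excess as the observed combination effect less EA + EB − EA·EB, with EA and EB the single-agent effects.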

[2] = system: HARA (Squamous Cell Lung Carcinoma)
Procedure, shortened: as §1

[3] = system: HO-1-u-1 (Oral Cavity Carcinoma)
Procedure, shortened: as §1

[4] = system: PCI-30 (Head and Neck Carcinoma)
Procedure, shortened: as §1

[5] = system: OVCAR-8 (Ovarian Carcinoma)
Procedure, shortened: as §1

[6] = system: 639-V (Bladder Carcinoma)
Procedure, shortened: as §1

[7] = system: KARPAS-231 (B-Cell Non-Hodgkin's Lymphoma)
Procedure, shortened: as §1

[8] = system: SUP-T1 (T-Lymphoblastic Leukemia)
Procedure, shortened: as §1

[9] = system: EN (Endometrial Carcinoma)
Procedure, shortened: as §1

[10] = system: LB771-HNC (Head and Neck Carcinoma)
Procedure, shortened: as §1

[11] = system: Hs-633T (Other Solid Carcinomas)
Procedure, shortened: as §1

[12] = system: RT-112 (Bladder Carcinoma)
Procedure, shortened: as §1

HMV-II (Melanoma) = system: HMV-II (Melanoma)
Procedure, shortened: as §1

NB14 (Neuroblastoma) = system: NB14 (Neuroblastoma)
Procedure, shortened: as §1

[13] = system: NCI-H747 (Colorectal Carcinoma)
Procedure, shortened: as §1

[14] = system: TE-4 (Esophageal Squamous Cell Carcinoma)
Procedure, shortened: as §1

[15] = system: CAPAN-1 (Pancreatic Carcinoma)
Procedure, shortened: as §1

[16] = system: LoVo (Colorectal Carcinoma)
Procedure, shortened: as §1

[17] = system: MDA-MB-468 (Breast Carcinoma)
Procedure, shortened: as §1

[18] = system: NCI-H69 (Small Cell Lung Carcinoma)
Procedure, shortened: as §1

SMILES | Bliss excess [1] | Bliss excess [2] | Bliss excess [3] | Bliss excess [4] | Bliss excess [5] | Bliss excess [6] | Bliss excess [7] | Bliss excess [8] | Bliss excess [9] | Bliss excess [10] | Bliss excess [11] | Bliss excess [12] | Bliss excess (HMV-II (Melanoma)) | Bliss excess (NB14 (Neuroblastoma)) | Bliss excess [13] | Bliss excess [14] | Bliss excess [15] | Bliss excess [16] | Bliss excess [17] | Bliss excess [18]
CC(=O)Nc1cccc(-n2c(=O)n(C3CC3)c(=O)c3c(Nc4ccc(I)cc4F)n(C)c(=O)c(C)c32)c1 [Trametinib] + Cc1nc(-c2cn3c(n2)-c2ccc(-c4cnn(C(C)(C)C(N)=O)c4)cc2OCC3)n(C(C)C)n1 [Taselisib] (first compound max 1 µM, 7x7, partner max 10 µM) | 0.0075 | 0.162 | 0.0754 | 0.0485 | 0.121 | 0.068 | -0.0605 | 0.0363 | 0.0161 | 0.125 | 0.191 | 0.106 | 0.0405 | 0.0702 | -0.0203 | 0.0758 | 0.129 | -0.0092 | -0.0919 | -0.0257
CC1(C)CCC(CN2CCN(c3ccc(C(=O)NS(=O)(=O)c4ccc(NCC5CCOCC5)c([N+](=O)[O-])c4)c(Oc4cnc5[nH]ccc5c4)c3)CC2)=C(c2ccc(Cl)cc2)C1 [Venetoclax] + C1CN(CCC1(C(=O)N[C@@H](CCO)C2=CC=C(C=C2)Cl)N)C3=NC=NC4=C3C=CN4 [Capivasertib] (first compound max 1 µM, 7x7, partner max 3 µM) | -0.038 | -0.009 | -0.052 | -0.0216 | -0.0504 | -0.108 | -0.182 | -0.0641 | -0.0656 | -0.008 | -0.0185 | -0.0313 | -0.0444 | -0.0461 | -0.0537 | -0.0421 | -0.0473 | -0.0419 | -0.0435 | 0.0185
CCc1c2c(nc3ccc(O)cc13)-c1cc3c(c(=O)n1C2)COC(=O)[C@]3(O)CC [SN-38] + CN(C)CCCOc1ccc(-c2ccc3ncc4c(c3c2)n(C2CCOCC2)c(=O)n4C)cn1 [AZD0156] (first compound max 0.3 µM, 7x7, partner max 1 µM) | 0.0224 | 0.112 | 0.0393 | -0.0044 | 0.0058 | 0.068 | 0.0202 | -0.0214 | -0.0346 | -0.031 | 0.153 | 0.0988 | -0.0108 | 0.0191 | 0.0019 | 0.0185 | -0.0341 | 0.0135 | 0.0309 | -0.0197
CN(C)CCCOc1ccc(-c2ccc3ncc4c(c3c2)n(C2CCOCC2)c(=O)n4C)cn1 [AZD0156] + O=C(c1cc(Cc2n[nH]c(=O)c3ccccc23)ccc1F)N1CCN(C(=O)C2CC2)CC1 [Olaparib] (first compound max 3 µM, partner max 3 µM) | 0.0204 | 0.0504 | 0.0795 | -0.0129 | 0.0073 | 0.0535 | 0.0651 | 0.0598 | -0.0292 | 0.033 | 0.17 | 0.0239 | -0.0287 | 0.218 | -0.0461 | 0.0387 | -0.0864 | 0.0346 | 0.0645 | 0.0386
CC1(C)CCC(CN2CCN(c3ccc(C(=O)NS(=O)(=O)c4ccc(NCC5CCOCC5)c([N+](=O)[O-])c4)c(Oc4cnc5[nH]ccc5c4)c3)CC2)=C(c2ccc(Cl)cc2)C1 [Venetoclax] + C[C@@H]1COCCN1C2=NC(=NC(=C2)C3(CC3)[S@](=N)(=O)C)C4=C5C=CNC5=NC=C4 [AZD6738] (first compound max 1 µM, 7x7, partner max 10 µM) | -0.0331 | -0.0787 | 0.0026 | -0.0076 | -0.0444 | -0.0323 | -0.18 | -0.0098 | -0.0605 | -0.014 | -0.0455 | 0.0228 | -0.0853 | -0.0005 | -0.0621 | -0.0337 | -0.0674 | -0.0637 | -0.028 | -0.0494
NC1(C(=O)N[C@@H](CCO)c2ccc(Cl)cc2)CCN(c2ncnc3[nH]ccc23)CC1 [Capivasertib] + Cn1cnc2c(F)c(Nc3ccc(Br)cc3Cl)c(C(=O)NOCCO)cc21 [Selumetinib] (first compound max 10 µM, 7x7, partner max 10 µM) | 0.0032 | -0.0186 | 0.126 | -0.0097 | 0.037 | -0.0183 | -0.0465 | 0.0063 | 0.0288 | -0.0595 | 0.0259 | 0.01 | -0.005 | -0.0654 | -0.0187 | 0.102 | -0.0081 | -0.004 | 0.0736 | -0.0198
CN(CCO)CC[C@H](CSc1ccccc1)Nc1ccc(S(=O)(=O)NC(=O)c2ccc(N3CCC([C@@H](O)c4ccccc4-c4ccc(Cl)cc4)CC3)cc2)cc1S(=O)(=O)C(F)(F)F [AZD4320] + CCN(CCO)CCCOc1ccc2c(Nc3cc(CC(=O)Nc4cccc(F)c4)[nH]n3)ncnc2c1 [AZD2811] (first compound max 1 µM, 7x7, partner max 1 µM) | -0.0565 | 0.106 | 0.107 | -0.0085 | 0.028 | 0.0502 | 0.0493 | 0.0933 | -0.0073 | -0.0227 | -0.0212 | 0.172 | -0.0357 | 0 | -0.0558 | -0.0186 | -0.0309 | -0.0278 | 0.0461 | 0.035
CC1(C)CCC(CN2CCN(c3ccc(C(=O)NS(=O)(=O)c4ccc(NCC5CCOCC5)c([N+](=O)[O-])c4)c(Oc4cnc5[nH]ccc5c4)c3)CC2)=C(c2ccc(Cl)cc2)C1 [Venetoclax] + CN(C)CCCOc1ccc(-c2ccc3ncc4c(c3c2)n(C2CCOCC2)c(=O)n4C)cn1 [AZD0156] (first compound max 1 µM, 7x7, partner max 1 µM) | -0.0004 | -0.0121 | -0.003 | -0.0665 | -0.0089 | 0.02 | -0.0599 | -0.0294 | -0.0832 | -0.0215 | -0.0023 | -0.0232 | 0.0134 | -0.0017 | -0.0497 | -0.0191 | -0.0696 | -0.0251 | -0.0294 | 0.002
NC1(C(=O)N[C@@H](CCO)c2ccc(Cl)cc2)CCN(c2ncnc3[nH]ccc23)CC1 [Capivasertib] + COc1nnc2ccc(N3CCC(c4ccc(OCCN5CCN(C)C(=O)[C@H]5C)cc4)CC3)nn12 [AZD5153] (first compound max 10 µM, 7x7, partner max 1 µM) | 0.0063 | -0.0019 | 0.0041 | 0.0406 | 0.0505 | 0.0409 | -0.0391 | -0.0296 | 0.0304 | 0.0208 | 0.0419 | 0.0334 | 0.014 | -0.0216 | -0.042 | 0.0684 | -0.0045 | 0.042 | -0.0281 | 0.019
C=CCn1c(=O)c2cnc(Nc3ccc(N4CCN(C)CC4)cc3)nc2n1-c1cccc(C(C)(C)O)n1 [AZD1775] + O=C(c1cc(Cc2n[nH]c(=O)c3ccccc23)ccc1F)N1CCN(C(=O)C2CC2)CC1 [Olaparib] (first compound max 1 µM, partner max 10 µM) | 0.0135 | -0.0325 | -0.0521 | -0.0579 | -0.0303 | 0.0085 | -0.0554 | -0.017 | -0.0469 | -0.0622 | -0.0188 | 0.0461 | -0.0279 | -0.0306 | 0.0175 | 0.0271 | -0.0123 | -0.0313 | -0.0449 | -0.0166
CC(=O)c1c(C)c2cnc(Nc3ccc(N4CCNCC4)cn3)nc2n(C2CCCC2)c1=O [Palbociclib] + Cc1c2c(nn1C)CSCc1cc(n(C)n1)CSc1cc(c3ccccc3c1)OCCCc1c(C(=O)O)n(C)c3c-2c(Cl)ccc13 [AZD5991] (first compound max 10 µM, 7x7, partner max 1 µM) | -0.0475 | 0.021 | -0.0069 | -0.0224 | -0.0281 | -0.0492 | -0.0835 | 0.0394 | -0.0544 | -0.0622 | 0.004 | -0.0524 | -0.0185 | -0.0498 | -0.0196 | -0.0598 | -0.033 | -0.0584 | 0.0078 | -0.0378
